Literature values as cited in publication PMC12860872, “Preclinical evaluation of DOTAGA.Glu.(FAPI)2 and DO3A.Glu.(FAPI)2 as theranostics with human dosimetry extrapolation to lutetium-177 and terbium-161 analogs” (European Journal of Nuclear Medicine and Molecular Imaging, 2025).

Experiments:
FAP = test system: FAP; design: method as in Martin et al. 2023 (15); conditions: enzymatic assay; ref Martin et al. 2023 (15); cited from earlier work
DPP8 = test system: DPP8; design: method as in Martin et al. 2023 (15); conditions: ref Martin et al. 2023 (15); cited from earlier work

In the case of `N#C[C@@H]1CC(F)(F)CN1C(=O)CNC(=O)c1ccnc2ccccc12` [UAMC-1110, reference compound], the IC50 (FAP) is given as 0.43 ± 0.02 nM and the IC50 (DPP8) is given as > 10000 nM.
